Measurements taken from ChEMBL document CHEMBL3885881, “DrugMatrix”.

Species: Rattus norvegicus
Assay: DrugMatrix - Regimen: Daily Repeat
Format: toxicity, organism-based, Sprague-Dawley
Parameters: regimen Daily Repeat, gender Male, age 6-8 weeks
Details: in vivo, vehicle 100 % SALINE; for ABSOLUTE BASOPHIL / ABSOLUTE EOSINOPHIL / ABSOLUTE LYMPHOCYTE / ABSOLUTE MONOCYTE / ABSOLUTE SEGMENTED NEUTROPHIL / BASOPHIL / EOSINOPHIL / ERYTHROCYTE COUNT / HEMOGLOBIN / LEUKOCYTE COUNT / LYMPHOCYTE / MEAN CORPUSCULAR HEMOGLOBIN / MEAN CORPUSCULAR HEMOGLOBIN CONCENTRATION / MEAN CORPUSCULAR VOLUME / NUCLEATED RED BLOOD CELLS / PLATELET COUNT: tissue Blood
[1] = iv, 0.004 mg/kg, 72 h, dose level Low, time 3 day
[2] = iv, 0.004 mg/kg, 72 h, tissue Plasma, dose level Low, time 3 day
[3] = iv, 0.004 mg/kg, 120 h, dose level Low, time 5 day
[4] = iv, 0.004 mg/kg, 120 h, tissue Plasma, dose level Low, time 5 day
[5] = sc, 0 mg/kg, 72 h, route mini-PUMP - SUBCUTANEOUS, dose level Control, time 3 day
[6] = sc, 0 mg/kg, 72 h, tissue Plasma, route mini-PUMP - SUBCUTANEOUS, dose level Control, time 3 day

CNC[C@H](O)c1ccc(O)c(O)c1 [EPINEPHRINE]
ABSOLUTE BASOPHIL [1]: 0 CELLS/uL
ABSOLUTE EOSINOPHIL [1]: 127.67 CELLS/uL
ABSOLUTE LYMPHOCYTE [1]: 11755 CELLS/uL
ABSOLUTE MONOCYTE [1]: 0 CELLS/uL
ABSOLUTE SEGMENTED NEUTROPHIL [1]: 884 CELLS/uL
BASOPHIL [1]: 0%
EOSINOPHIL [1]: 1%
ERYTHROCYTE COUNT [1]: 5.71 x10E6/uL
HEMOGLOBIN [1]: 14.07 G/DL
LEUKOCYTE COUNT [1]: 12.77 x10E3/uL
LYMPHOCYTE [1]: 92%
MEAN CORPUSCULAR HEMOGLOBIN [1]: 24.73 pg
MEAN CORPUSCULAR HEMOGLOBIN CONCENTRATION [1]: 37.8 G/DL
MEAN CORPUSCULAR VOLUME [1]: 65.37 fL
NUCLEATED RED BLOOD CELLS [1]: 0 /100WBC
PLATELET COUNT [1]: 1271 x10E3/uL
ALANINE AMINOTRANSFERASE [2]: 57.33 u/L
ALBUMIN [2]: 4.43 G/DL
ALKALINE PHOSPHATASE [2]: 425 u/L
ASPARTATE AMINOTRANSFERASE [2]: 75 u/L
BLOOD UREA NITROGEN [2]: 14 mg/dL
CARBON DIOXIDE [2]: 27 mmol/L
CHLORIDE [2]: 101.33 MEQ/L
CHOLESTEROL [2]: 80 mg/dL
CREATINE PHOSPHOKINASE [2]: 187.33 u/L
CREATININE [2]: 0.23 mg/dL
LACTATE DEHYDROGENASE [2]: 118.67 u/L
LIPASE [2]: 9 u/L
PHOSPHORUS [2]: 12.7 mg/dL
POTASSIUM [2]: 6.89 MEQ/L
SODIUM [2]: 145.07 MEQ/L
TOTAL PROTEIN [2]: 6.1 G/DL
ABSOLUTE BASOPHIL [3]: 0 CELLS/uL
ABSOLUTE EOSINOPHIL [3]: 147.67 CELLS/uL
ABSOLUTE LYMPHOCYTE [3]: 10984 CELLS/uL
ABSOLUTE MONOCYTE [3]: 0 CELLS/uL
ABSOLUTE SEGMENTED NEUTROPHIL [3]: 1368.33 CELLS/uL
BASOPHIL [3]: 0%
EOSINOPHIL [3]: 1%
ERYTHROCYTE COUNT [3]: 5.59 x10E6/uL
HEMOGLOBIN [3]: 13.2 G/DL
LEUKOCYTE COUNT [3]: 12.5 x10E3/uL
LYMPHOCYTE [3]: 87.33%
MEAN CORPUSCULAR HEMOGLOBIN [3]: 23.63 pg
MEAN CORPUSCULAR HEMOGLOBIN CONCENTRATION [3]: 37.23 G/DL
MEAN CORPUSCULAR VOLUME [3]: 63.47 fL
NUCLEATED RED BLOOD CELLS [3]: 0 /100WBC
PLATELET COUNT [3]: 1309.33 x10E3/uL
ALANINE AMINOTRANSFERASE [4]: 48 u/L
ALBUMIN [4]: 4.47 G/DL
ALKALINE PHOSPHATASE [4]: 367.33 u/L
ASPARTATE AMINOTRANSFERASE [4]: 79 u/L
BLOOD UREA NITROGEN [4]: 16 mg/dL
CARBON DIOXIDE [4]: 24 mmol/L
CHLORIDE [4]: 103 MEQ/L
CHOLESTEROL [4]: 67.33 mg/dL
CREATINE PHOSPHOKINASE [4]: 204.67 u/L
CREATININE [4]: 0.23 mg/dL
LACTATE DEHYDROGENASE [4]: 102.67 u/L
LIPASE [4]: 8 u/L
PHOSPHORUS [4]: 13.37 mg/dL
POTASSIUM [4]: 6.61 MEQ/L
SODIUM [4]: 145.67 MEQ/L
TOTAL PROTEIN [4]: 6.3 G/DL
ABSOLUTE BASOPHIL [5]: 0 CELLS/uL
ABSOLUTE EOSINOPHIL [5]: 77.17 CELLS/uL
ABSOLUTE LYMPHOCYTE [5]: 14293.83 CELLS/uL
ABSOLUTE MONOCYTE [5]: 354 CELLS/uL
ABSOLUTE SEGMENTED NEUTROPHIL [5]: 1658.33 CELLS/uL
BASOPHIL [5]: 0%
EOSINOPHIL [5]: 0.5%
ERYTHROCYTE COUNT [5]: 6.27 x10E6/uL
HEMOGLOBIN [5]: 13.4 G/DL
LEUKOCYTE COUNT [5]: 16.38 x10E3/uL
LYMPHOCYTE [5]: 87.17%
MEAN CORPUSCULAR HEMOGLOBIN [5]: 21.42 pg
MEAN CORPUSCULAR HEMOGLOBIN CONCENTRATION [5]: 36.27 G/DL
MEAN CORPUSCULAR VOLUME [5]: 59.03 fL
NUCLEATED RED BLOOD CELLS [5]: 0 /100WBC
PLATELET COUNT [5]: 904.67 x10E3/uL
ALANINE AMINOTRANSFERASE [6]: 48.33 u/L
ALBUMIN [6]: 3.82 G/DL
ALKALINE PHOSPHATASE [6]: 282.33 u/L
ASPARTATE AMINOTRANSFERASE [6]: 86.83 u/L
BLOOD UREA NITROGEN [6]: 20.17 mg/dL
CARBON DIOXIDE [6]: 34.67 mmol/L
CHLORIDE [6]: 102 MEQ/L
CHOLESTEROL [6]: 71.5 mg/dL
CREATININE [6]: 0.2 mg/dL
LACTATE DEHYDROGENASE [6]: 159 u/L
LIPASE [6]: 9 u/L
PHOSPHORUS [6]: 10.12 mg/dL
POTASSIUM [6]: 5.92 MEQ/L
SODIUM [6]: 147.8 MEQ/L
TOTAL BILIRUBIN [6]: 0.2 mg/dL
